“And” between values parts separate entries of the source, which are not always exact repeats. Equal entries are not always repeated.
B1: PK1: Recombinant human prokineticin-1 expressed in HEK 293 cells, FLAG cleaved; mixture of full-length ligand and four C-terminal residue truncated product (protein, UniProt P58294 20-105, looked up)
Prokineticin-1: AVITGACERDVQCGAGTCCAISLWLRGLRMCTPLGREGEECHPGSHKVPFFRKRKHHTCPCLPNLLCSRFPDGRYRCSMDLKNINF
modifications: mixture with C-terminal 4-residue truncated form
notes: Recombinant human prokineticin-1 expressed in HEK 293 cells, FLAG cleaved; mixture of full-length ligand and four C-terminal residue truncated product

What was measured:
PK1 receptor = PK1 receptor (Rattus norvegicus, UniProt Q8R416); assay: Inhibition of PK1-evoked increase in Isc by PK1 receptor antagonists in Ussing-type ion flux chambers; conditions: test compound 1 μM, 15 min incubation, PK1 10 and 100 nM cumulative
From the text: Methodology. The basic methodology for Ussing-type ion flux chambers used in these studies was the same as that described in detail above with the following modifications to the experimental protocol.

[1] = target: T1, HEK 293 GPR73 (prokineticin 1 receptor) expressing cells (Homo sapiens, UniProt Q8TCW9); assay: PK1 functional assay: screening for PK1 antagonists on the FLIPR (calcium mobilization); assay type: cell-based; conditions: HEK 293 GPR73 cells; for inhibition at 10 µM: HEK293, 10 μM compound, read-out: Ca^2+ Mobilization % Inh @10 μM; for IC50: PK1 ligand at EC50, read-out: Ca^2+ Mobilization IC50; for Ca^2+ Mobilization % Inh @10 μM: 10 μM compound
T1 construct: expressed in transfected cells; host or cells: HEK 293
Experimental: Screening Procedure for PK1 Antagonists on the Fluorometric Imaging Plate Reader (FLIPR)
At a time of 24 h prior to running the assay, in cell culture media (DMEM containing high Glucose and L-glutamine, 10% FBS, 1% Pen/Streptomycin, 1% Sodium Pyruvate, 20 mM HEPES, Zeocin 200 mg/L), 100 μL of 1.3*10^6/ml HEK 293 GPR73 (prokineticin 1 receptor) expressing cells were plated in a 96 well poly-d-lysine coated plate (Costar), and incubated at 37 C and 5% CO2. On the day in which the assay was run, the media was removed and 200 μL of 5× Calcium Plus Dye (Molecular Devices) which was previously resuspended with 200 mL of assay buffer [HBSS w/Ca^2+ and Mg^2+ w/o phenol red, 20 mM HEPES, 0.1% BSA, 10 mL probenecid (710 mg probenecid in 5 mL of 1N NaOH, to which was then added 5 mL HBSS containing 20 mM HEPES)] was added to each well of the 96-well plate. The plate was incubated at 37 C and 5% CO2 for 30 min in dark. The plate was removed and allowed to reach RT for 15 min in the dark. The assay was then run on the FLIPR. […] Baseline is described as the amount of relative fluorescence read when buffer alone is added to cells. Baseline was subtracted from all wells. Percent of control was calculated as follows: (Baseline subtracted well value is divided by baseline subtracted max value)*100. Percent inhibition is 100 minus the percent of control value.
IC50 values were calculated using GraphPad Prism.

rat ileal tissues = assay: Effect of PK1 on secretion and gut mucosal ion transport (short-circuit current, Ussing-type flux chamber)
[2] = system: ileum mucosal tissues from PK1 receptor knock-out mice; assay: PK1-evoked Isc in ileum mucosal tissues from PK1 receptor knock-out mice; conditions: exogenous PK1 peptide, PK1 receptor knock-out mice ileum mucosa

T1 sequence (Q8TCW9 whole entry): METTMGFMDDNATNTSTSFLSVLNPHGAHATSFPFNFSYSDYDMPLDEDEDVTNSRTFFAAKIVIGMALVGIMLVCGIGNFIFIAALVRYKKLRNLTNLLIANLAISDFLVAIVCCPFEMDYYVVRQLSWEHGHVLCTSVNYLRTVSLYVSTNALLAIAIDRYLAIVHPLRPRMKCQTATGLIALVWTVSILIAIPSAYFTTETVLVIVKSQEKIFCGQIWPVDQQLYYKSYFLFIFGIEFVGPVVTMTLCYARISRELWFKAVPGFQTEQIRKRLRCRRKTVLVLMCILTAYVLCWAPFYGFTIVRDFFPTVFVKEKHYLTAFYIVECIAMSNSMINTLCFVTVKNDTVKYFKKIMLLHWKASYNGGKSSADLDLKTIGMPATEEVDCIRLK
Sequence of PK1 receptor (Q8R416 whole entry): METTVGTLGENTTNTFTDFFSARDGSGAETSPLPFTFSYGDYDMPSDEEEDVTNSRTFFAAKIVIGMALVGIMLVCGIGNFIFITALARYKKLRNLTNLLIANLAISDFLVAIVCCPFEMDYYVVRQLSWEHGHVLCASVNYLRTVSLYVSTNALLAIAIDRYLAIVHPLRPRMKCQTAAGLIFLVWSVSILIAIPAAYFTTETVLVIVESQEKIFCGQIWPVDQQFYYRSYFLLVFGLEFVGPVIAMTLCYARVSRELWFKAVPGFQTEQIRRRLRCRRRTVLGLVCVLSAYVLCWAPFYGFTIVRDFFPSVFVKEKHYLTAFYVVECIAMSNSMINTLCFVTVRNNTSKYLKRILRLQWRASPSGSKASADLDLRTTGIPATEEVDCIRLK

Molecule | inhibition at 10 µM [1] [%] | IC50 [1] | Ca^2+ Mobilization % Inh @10 μM [1] | other results
COc1ccc(Cn2c(NCCNC(=N)N)nc(=O)n(Cc3ccccc3)c2=O)cc1 [Cpd 2] | – | – | – | inhibition of the PK1 evoked increase in Isc (PK1 receptor): successfully achieved
N=C(N)NCCNc1nc(=O)n(Cc2ccccc2)c(=O)n1Cc1ccc([N+](=O)[O-])cc1 [Cpd 9] | 35 | > 10000 nM | – | –
COc1ccc(Cn2c(NCCONC(=N)N)nc(=O)n(Cc3ccccc3)c2=O)cc1 [Cpd 10] | – | – | 33% | –
COc1ccc(Cn2c(NCCNC(=N)N)nc(=O)n(Cc3ccc(F)cc3)c2=O)cc1 [Cpd 17, N-{2-[5-(4-Fluoro-benzyl)-1-(4-methoxy-benzyl)-4,6-dioxo-1,4,5,6-tetrahydro-[1,3,5]triazin-2-ylamino]-ethyl}-guanidine] | – | – | – | inhibition of the PK1 evoked increase in Isc (PK1 receptor): successfully achieved
COc1ccc(Cn2c(N[C@@H]3CCCC[C@H]3NC(=N)N)nc(=O)n(Cc3ccc(Cl)c(Cl)c3)c2=O)cc1 [Cpd 47] | 101 | 57 nM | – | –
COc1ccc(Cn2c(NCCNC(=N)NC(C)C)nc(=O)n(Cc3ccc(Cl)c(Cl)c3)c2=O)cc1 [Cpd 58, N-{2-[5-(3,4-Dichloro-benzyl)-1-(4-methoxy-benzyl)-4,6-dioxo-1,4,5,6-tetrahydro-[1,3,5]triazin-2-ylamino]-ethyl}-N′-isopropyl-guanidine] | 102 | 7 nM and 16 nM (2×) | – | Ca^2+ Mobilization % Inh @10 μM ([1]; 10 µM): 99% and 98%; inhibition of the PK1 evoked increase in Isc (PK1 receptor): successfully achieved
COc1ccc(Cn2c(NCCNC(=N)NCCc3ccccc3)nc(=O)n(Cc3ccc(Cl)c(Cl)c3)c2=O)cc1 [Cpd 65] | – | 485 nM | 88% | –
COc1ccc(Cn2c(NCCNC(=N)Nc3ccc(C#N)cc3)nc(=O)n(Cc3ccc(F)cc3)c2=O)cc1 [Cpd 90, N-(4-Cyano-phenyl)-N′-{2-[5-(4-fluoro-benzyl)-1-(4-methoxy-benzyl)-4,6-dioxo-1,4,5,6-tetrahydro-[1,3,5]triazin-2-ylamino]-ethyl}-guanidine] | 100 | 31 nM and 43 nM (2×) | – | Ca^2+ Mobilization % Inh @10 μM ([1]; 10 µM): 100% and 101%
COc1ccc(Cn2c(NCCN(C(=N)N)c3ccccn3)nc(=O)n(Cc3ccc(F)cc3)c2=O)cc1 [Cpd 104, N-{2-[5-(4-Fluoro-benzyl)-1-(4-methoxy-benzyl)-4,6-dioxo-1,4,5,6-tetrahydro-[1,3,5]triazin-2-ylamino]-ethyl}-N-pyridin-2-yl-guanidine] | – | 11 nM | – | Ca^2+ Mobilization % Inh @10 μM ([1]; 10 µM): 99% and 102%
COc1ccc(Cn2c(NCCNC(=N)NCCc3ccccn3)nc(=O)n(Cc3ccc(F)cc3)c2=O)cc1 [Cpd 105] | – | 89 nM | 100% | –
[H]/N=C(\N)NCCNc1nc(=O)n(Cc2ccc(OC(C)(C)C)cc2)c(=O)n1Cc1ccc(OC)cc1 [Cpd 109] | 99 | 129 nM | – | –
COc1ccc(Cn2c(NCCNC(=N)Nc3ccccc3F)nc(=O)n(Cc3ccc(F)cc3)c2=O)cc1 [Cpd 118, N-{2-[5-(4-Fluoro-benzyl)-1-(4-methoxy-benzyl)-4,6-dioxo-1,4,5,6-tetrahydro-[1,3,5]triazin-2-ylamino]-ethyl}-N′-(2-fluoro-phenyl)-guanidine] | 98 | 6 nM | – | Ca^2+ Mobilization % Inh @10 μM ([1]; 10 µM): 102%
COc1ccc(Cn2c(NCCNC(=N)N)nc(=O)n(CC3CCCC3)c2=O)cc1 [Cpd 124] | – | 1560 nM | 74% | –
COc1ccc(Cn2c(NCCNC(=N)NC(=O)c3ccccc3)nc(=O)n(Cc3ccc(F)cc3)c2=O)cc1 [Cpd 134, N-Benzoyl-N′-{2-[5-(4-fluoro-benzyl)-1-(4-methoxy-benzyl)-4,6-dioxo-1,4,5,6-tetrahydro-[1,3,5]triazin-2-ylamino]-ethyl}-guanidine] | 97 | 19 nM and 28 nM | 97, 97% | –
N-{2-[5-Benzyl-1-(4-methoxy-benzyl)-4,6-dioxo-1,4,5,6-tetrahydro-[1,3,5]triazin-2-ylamino]-ethyl}-oxyguanidine [Cpd 27] | – | 1970 nM | 55% | –
B1 | – | – | – | increase in Isc from baseline (rat ileal tissues; 10 nM PK1, […], n=33 tissues from 22 rats): 13.5±2. μA/cm^2; increase in Isc from baseline (rat ileal tissues; 100 nM PK1, […], n=42 tissues from 29 rats): 28.7±2.9 μA/cm^2; concentration at which the maximal PK1-evoked response occurred (rat ileal tissues; […]): 100 nM; effect on tissue conductance (G) (rat ileal tissues; […]): no significant effect; time for Isc to decline back toward baseline (rat ileal tissues; basolateral addition, […]): 10 to 15 min; time to peak Isc after single-dose addition (rat ileal tissues; basolateral addition, […]): 2 to 4 min; pro-secretory effect in the presence of Atropine (rat ileal tissues; blockade of muscarinic receptors): not blocked; pro-secretory effect in the presence of Tetrodotoxin (TTX) (rat ileal tissues; nerve conduction toxin present): not blocked; change in Isc compared to wild-type littermates [2]: failed to elicit a significant change in Isc
